Source: PubChem BioAssay AID248 (DTP/NCI, 2004)
Where “and” joins values, the source holds several entries; their conditions need not be identical. Identical values can stand only once. Toxic doses and inconclusive results are not listed. Cut-off read from the data, not from the text of the source: active = T/C of 150% or more; inactive = T/C below 125%.

System: L1210 leukemia ip in BDF1 mice, survival T/C
Experiment: NCI In Vivo Anticancer Drug Screen. Data for tumor model L1210 Leukemia (intraperitoneal) in B6D2F1 (BDF1) mice
Settings: endpoint: mean survival time, higher = longer survival
Outline: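 Mice bearing the transplanted tumor received compound or vehicle. Survival of the treated group was divided by that of the vehicle-treated control group to give the ratio.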

[1] = dose: 100.0 mg/kg/injection, schedule: Q04DX003 (ip), vehicle: Klucel (hydroxypropylcellulose) (HPC)
[2] = dose: 200.0 mg/kg/injection, schedule: Q04DX003 (ip), vehicle: Klucel (hydroxypropylcellulose) (HPC)
[3] = dose: 400.0 mg/kg/injection, schedule: Q04DX003 (ip), vehicle: Klucel (hydroxypropylcellulose) (HPC)
[4] = dose: 100.0 mg/kg/injection, schedule: Q04DX003 (ip), vehicle: saline with Tween-80
[5] = dose: 200.0 mg/kg/injection, schedule: Q04DX003 (ip), vehicle: saline with Tween-80
[6] = dose: 400.0 mg/kg/injection, schedule: Q04DX003 (ip), vehicle: saline with Tween-80
[7] = dose: 100.0 mg/kg/injection, schedule: Q01DX009 (ip), vehicle: Klucel (hydroxypropylcellulose) (HPC)
[8] = dose: 200.0 mg/kg/injection, schedule: Q01DX009 (ip), vehicle: Klucel (hydroxypropylcellulose) (HPC)
[9] = dose: 400.0 mg/kg/injection, schedule: Q01DX009 (ip), vehicle: Klucel (hydroxypropylcellulose) (HPC)
[10] = dose: 100.0 mg/kg/injection, schedule: Q01DX001 (ip), vehicle: saline
[11] = dose: 200.0 mg/kg/injection, schedule: Q01DX001 (ip), vehicle: saline
[12] = dose: 400.0 mg/kg/injection, schedule: Q01DX001 (ip), vehicle: saline
[13] = dose: 50.0 mg/kg/injection, schedule: Q01DX009 (ip), vehicle: Klucel (hydroxypropylcellulose) (HPC)

Measured: T/C

NNC(=O)OCCO
inactive: dose: 25.0 mg/kg/injection, schedule: Q01DX009 (ip), vehicle: saline 103 % of control | dose: 50.0 mg/kg/injection, schedule: Q01DX009 (ip), vehicle: saline 104 % of control

C=CCc1cnc(SCc2ccccc2)[nH]c1=O
inactive: dose: 100.0 mg/kg/injection, schedule: Q01DX001 (ip), vehicle: gum acacia 101 % of control | dose: 200.0 mg/kg/injection, schedule: Q01DX001 (ip), vehicle: gum acacia 91 % of control | dose: 400.0 mg/kg/injection, schedule: Q01DX001 (ip), vehicle: gum acacia 94 % of control

CN(C)/N=N/c1ccn[nH]1
inactive: dose: 50.0 mg/kg/injection, schedule: Q01DX005 (ip), vehicle: saline 105 % of control

CC(C)(C)C(O)C1CCC(C(O)C(C)(C)C)S1(=O)=O (configuration not stated)
inactive: dose: 50.0 mg/kg/injection, schedule: Q04DX003 (ip), vehicle: Klucel (hydroxypropylcellulose) (HPC) 100 % of control | [1] 104 % of control | [2] 98 % of control | [3] 100 % of control

CC(CC(=O)O)C(C(=O)O)C(=O)O (configuration not stated)
inactive: dose: 25.0 mg/kg/injection, schedule: Q01DX009 (ip), vehicle: water 110 % of control | dose: 50.0 mg/kg/injection, schedule: Q01DX009 (ip), vehicle: water 108 % of control | dose: 100.0 mg/kg/injection, schedule: Q01DX009 (ip), vehicle: water 106 % of control | dose: 200.0 mg/kg/injection, schedule: Q01DX009 (ip), vehicle: water 101 % of control

CC(C)COC(C[N+](=O)[O-])C(Cl)(Cl)Cl (configuration not stated)
inactive: dose: 100.0 mg/kg/injection, schedule: Q01DX009 (ip), vehicle: saline with Tween-80 98 % of control | [4] 92 % of control | dose: 200.0 mg/kg/injection, schedule: Q01DX009 (ip), vehicle: saline with Tween-80 89 % of control | [5] 90 % of control | [6] 92 % of control

O=P(Cc1ccccc1)(Cc1ccccc1)Cc1ccccc1
inactive: [7] 100 % of control | [8] 91 % of control | [9] 96 % of control

C(=N\Nc1nnc(N/N=C/c2cccc3ccccc23)c2ccccc12)/c1cccc2ccccc12
inactive: dose: 50.0 mg/kg/injection, schedule: Q01DX001 (ip), vehicle: saline 92 % of control | [10] 92 % of control | [11] 92 % of control | [12] 92 % of control

CCOC(=O)c1ccc(NC(=O)Nc2cc(Cl)ccc2C)cc1
inactive: dose: 25.0 mg/kg/injection, schedule: Q01DX009 (ip), vehicle: Klucel (hydroxypropylcellulose) (HPC) 103 % of control | [13] 108 % of control | [7] 87 % of control and 89 % of control | [8] 98 % of control

NCCCC(=O)NCCCCCCCCCCNC(=O)CCCN
inactive: dose: 3.0 mg/kg/injection, schedule: Q01DX012 (ip), vehicle: saline 105 % of control | dose: 10.0 mg/kg/injection, schedule: Q01DX012 (ip), vehicle: saline 108 % of control | dose: 30.0 mg/kg/injection, schedule: Q01DX012 (ip), vehicle: saline 103 % of control

OC(c1ccccc1)(c1ccccc1)C1CCCCC1C(O)(c1ccccc1)c1ccccc1 (configuration not stated)
inactive: dose: 100.0 mg/kg/injection, schedule: Q01DX009 (ip), vehicle: saline 93 % of control | dose: 200.0 mg/kg/injection, schedule: Q01DX009 (ip), vehicle: saline 93 % of control | dose: 400.0 mg/kg/injection, schedule: Q01DX009 (ip), vehicle: saline 89 % of control

c1ccc2c(c1)ccc1oc3ccccc3c12
inactive: [10] 101 % of control | [11] 95 % of control | [12] 98 % of control

CCCC1c2ccccc2-c2ccc(C(C)=O)cc21 (configuration not stated)
inactive: dose: 100.0 mg/kg/injection, schedule: Q01DX001 (ip), vehicle: carboxymethylcellulose (CMC) 97 % of control | dose: 200.0 mg/kg/injection, schedule: Q01DX001 (ip), vehicle: carboxymethylcellulose (CMC) 92 % of control | dose: 400.0 mg/kg/injection, schedule: Q01DX001 (ip), vehicle: carboxymethylcellulose (CMC) 97 % of control

O=C1OCCN1C(=O)c1ccc(Cl)c(Cl)c1
inactive: dose: 25.0 mg/kg/injection, schedule: Q01DX007 (ip), vehicle: Klucel (hydroxypropylcellulose) (HPC) 97 % of control | dose: 50.0 mg/kg/injection, schedule: Q01DX007 (ip), vehicle: Klucel (hydroxypropylcellulose) (HPC) 95 % of control | dose: 100.0 mg/kg/injection, schedule: Q01DX001 (ip), vehicle: Klucel (hydroxypropylcellulose) (HPC) 100 % of control | dose: 100.0 mg/kg/injection, schedule: Q01DX007 (ip), vehicle: Klucel (hydroxypropylcellulose) (HPC) 100 % of control | [7] 94 % of control | [1] 95 % of control | dose: 200.0 mg/kg/injection, schedule: Q01DX001 (ip), vehicle: Klucel (hydroxypropylcellulose) (HPC) 94 % of control | [2] 100 % of control | dose: 400.0 mg/kg/injection, schedule: Q01DX001 (ip), vehicle: Klucel (hydroxypropylcellulose) (HPC) 96 % of control | [9] 87 % of control | [3] 100 % of control

CC(=O)OC1=NC(C)c2c1cc(OC(C)=O)[nH]c2=O (configuration not stated)
inactive: [13] 102 % of control | [1] 108 % of control | [2] 115 % of control

COC1OC(COC(C)=O)C(OC(C)=O)C(OC(C)=O)[CH]1[Hg][O]C(C)=O (configuration not stated)
inactive: dose: 6.25 mg/kg/injection, schedule: Q04DX003 (ip), vehicle: saline 96 % of control | dose: 12.5 mg/kg/injection, schedule: Q04DX003 (ip), vehicle: saline 98 % of control | dose: 25.0 mg/kg/injection, schedule: Q04DX003 (ip), vehicle: saline 92 % of control

Cc1cc(Cl)ccc1OCC(=O)NCC(=O)O
inactive: dose: 100.0 mg/kg/injection, schedule: Q04DX002 (ip), vehicle: Klucel (hydroxypropylcellulose) (HPC) 90 % of control | dose: 200.0 mg/kg/injection, schedule: Q04DX002 (ip), vehicle: Klucel (hydroxypropylcellulose) (HPC) 97 % of control | dose: 400.0 mg/kg/injection, schedule: Q04DX002 (ip), vehicle: Klucel (hydroxypropylcellulose) (HPC) 105 % of control

O=C(O)c1cccnc1C(=O)O.[Cu+2]
inactive: dose: 3.12 mg/kg/injection, schedule: Q01DX009 (ip), vehicle: Klucel (hydroxypropylcellulose) (HPC) 107 % of control | dose: 6.25 mg/kg/injection, schedule: Q01DX009 (ip), vehicle: Klucel (hydroxypropylcellulose) (HPC) 94 % of control | dose: 6.25 mg/kg/injection, schedule: Q04DX003 (ip), vehicle: Klucel (hydroxypropylcellulose) (HPC) 94 % of control and 95 % of control | dose: 12.5 mg/kg/injection, schedule: Q01DX001 (ip), vehicle: other 108 % of control | dose: 12.5 mg/kg/injection, schedule: Q01DX009 (ip), vehicle: Klucel (hydroxypropylcellulose) (HPC) 92 % of control | dose: 12.5 mg/kg/injection, schedule: Q04DX003 (ip), vehicle: Klucel (hydroxypropylcellulose) (HPC) 101 % of control and 97 % of control | dose: 25.0 mg/kg/injection, schedule: Q01DX001 (ip), vehicle: other 89 % of control | dose: 25.0 mg/kg/injection, schedule: Q04DX003 (ip), vehicle: Klucel (hydroxypropylcellulose) (HPC) 95 % of control

CCC(C)NC1=CC(=O)c2ccccc2C1=O (configuration not stated)
inactive: dose: 100.0 mg/kg/injection, schedule: Q01DX001 (ip), vehicle: saline with Tween-80 95 % of control | dose: 200.0 mg/kg/injection, schedule: Q01DX001 (ip), vehicle: saline with Tween-80 94 % of control

CCN(CC)Cc1c(O)ccc2c3c(c(=O)oc12)CCCC3
inactive: dose: 10.0 mg/kg/injection, schedule: Q01DX001 (ip), vehicle: carboxymethylcellulose (CMC) 103 % of control | dose: 20.0 mg/kg/injection, schedule: Q01DX001 (ip), vehicle: carboxymethylcellulose (CMC) 97 % of control | dose: 40.0 mg/kg/injection, schedule: Q01DX001 (ip), vehicle: carboxymethylcellulose (CMC) 94 % of control | dose: 80.0 mg/kg/injection, schedule: Q01DX001 (ip), vehicle: carboxymethylcellulose (CMC) 96 % of control

Cc1ccc(S(=O)(=O)OCC(OS(=O)(=O)c2ccc(C)cc2)C2OCOC(COS(=O)(=O)c3ccc(C)cc3)C2OS(=O)(=O)c2ccc(C)cc2)cc1 (configuration not stated)
inactive: [4] 94 % of control | [5] 87 % of control | [6] 100 % of control

Cc1[nH]c2ccccc2c(=O)c1CCC(=O)O
inactive: dose: 100.0 mg/kg/injection, schedule: Q04DX002 (ip), vehicle: saline with Tween-80 88 % of control | dose: 200.0 mg/kg/injection, schedule: Q04DX002 (ip), vehicle: saline with Tween-80 91 % of control | dose: 400.0 mg/kg/injection, schedule: Q04DX002 (ip), vehicle: saline with Tween-80 91 % of control
